Assay results published in patent US7947668B2, “Aminoalkyl sterol compounds having an anti-tumoral and neuroprotective activity” (Institut National de la Sante et de la Recherche Medicale, priority 2002, dated 2011).

Test system: C57BL/6 mouse spleen monocytes
Test: Dendritogenesis on C57BL/6 mouse spleen monocytes
Format: cell-based
Settings: dose of 1 nM, 36 hours after the start of action
Experimental: 1) On C57BL/6 Mouse Spleen Monocytes
5-week-old mice are sacrificed by cervical dislocation. They are then dissected. The spleens are removed under sterile conditions and then placed in a cold solution (4° C.) containing serum-free culture medium supplemented with antibiotics (streptomycin and penicillin). The spleens are ground in a sterile fume cupboard and then filtered through a 100 μm filter. The eluate is recovered and then centrifuged at 1000 rpm for 5 minutes at 4° C. The cell pellet is resuspended in phosphate-buffered saline (PBS) solution containing […], the purpose of which is to lyze the red blood cells. The suspension is centrifuged at 1000 rpm and the cells are then resuspended in PBS. The washing operation is performed twice. The final resuspension is performed in whole culture medium, and the cells are counted and distributed into six-well dishes at a density of 40 000 cells/ml. Four hours later, the adhering cells are washed vigorously with PBS in order to remove the cells that might remain attached to the adhering cells or to the culture dish.
The conversion was obtained with a dose of 1 nM, the photograph having been taken 36 hours after the start of action of the product. The test product is that of example 9. The appearance of cellular extensions is observed, which is one of the main characteristics of activated dendritic cells.

Molecule	morphological changes on the mouse monocytes, conversion into dendritic cells
NCCc1c[nH]cn1 [amine, 2-(1H-imidazol-4-yl)ethylamine, reference compound]	ineffective
CC(C)CCC[C@@H](C)[C@H]1CC[C@H]2[C@@H]3C[C@@H]4O[C@@]45C[C@@H](O)CC[C@]5(C)[C@H]3CC[C@]12C [epoxy-cholesterol derivative, 5,6-α-epoxycholestan-3β-ol, reference compound]	ineffective
CC(C)CCC[C@@H](C)[C@H]1CC[C@H]2[C@@H]3CC=C4C[C@@H](O)CC[C@]4(C)[C@H]3CC[C@]12C [cholesterol, reference compound]	ineffective
GM-CSF: cytokine used with IL-4 to differentiate monocytes into dendritic cells	ineffective
IL-4: interleukin-4, cytokine (protein, UniProt P05112 25-153, looked up) Interleukin-4: HKCDITLQEIIKTLNSLTEQKTLCTELTVTDIFAASKNTTEKETFCRAATVLRQFYSHHEKDTRCLGATAQQFHRHKQLIRFLKRLDRNLWGLAGLNSCPVKEANQSTLENFLERLKTIMREKYSKCSS	ineffective

Test system: PC12 cells
Test: Neuritogenesis on PC12 cells
Format: cell-based
Settings: dose of 10 nM, action time 36 hours
Experimental: The PC12 cells were cultured at an initial density of 1.5×10^5 cells/ml in RPMI 1640 medium supplemented with 10% fetal calf serum and 5% horse serum. The base of the culture dishes is treated with a 0.1 wt % polylysine or collagen solution in order to cause adhesion of the cells. The supernatant cells are removed after 12 hours and then treated with or without nerve growth factor (NGF) at 10 ng/ml, with or without the compound of example 6 or of example 7. The cells are observed by phase-contrast microscopy.
The PC12 cells treated by means of the compound of example 6 were treated at a dose of 10 nM, the action time of the compound being 36 hours.

Molecule	change in morphology of PC12 cells toward dendrites
CC(C)CCC[C@@H](C)[C@H]1CC[C@H]2C3=C[C@@H](NCCCCNCCCN)[C@@]4(O)C[C@@H](O)CC[C@]4(C)[C@H]3CC[C@]12C [Example 6, cholest-7-ene-3β,5α-diol-6β-N-[1-N-1-(3-aminopropyl)butane-1,4-diamine]]	formation of dendrites

Test system: P19 cells
Test: Neuritogenesis on mouse P19 cells
Format: cell-based
Settings: dose of 10 nM; after 12 hours of treatment
Experimental: The P19 cells are derived from a mouse embryonic carcinoma. They are pluripotent cells, which can change into neurones or into glial cells by treatment with retinoic acid (J. Cell. Biol. 1982 August, 94 (2): pp. 253-262) and can differentiate into muscle cells in the presence of dimethyl sulfoxide (Nature 1982-9 September, 299(58 79): pp. 165-167).
The P19 cells are cultured in the presence of an “RPMI 1640” culture medium sold by the company “Gibco BRL”, this medium being supplemented with 2 mM of glutamine and 4% by weight of fetal calf serum. They are inoculated at low density (10 000 cells per 60-mm well). The P19 cells are treated with the compound of example 6; they are then observed by phase-contrast microscopy. […]

Molecule	change in morphology of P19 cells toward dendrites
CC(C)CCC[C@@H](C)[C@H]1CC[C@H]2[C@@H]3C[C@@H](NCCCCNCCCN)[C@@]4(O)C[C@@H](O)CC[C@]4(C)[C@H]3CC[C@]12C [Example 4, cholestane-3β,5α-diol-6β-N-[1-N1-(3-aminopropyl)butane-1,4-diamine]]	same observations
CC(C)CCC[C@@H](C)[C@H]1CC[C@H]2C3=C[C@@H](NCCCNCCCCNCCCN)[C@@]4(O)C[C@@H](O)CC[C@]4(C)[C@H]3CC[C@]12C [Example 7, cholest-7-ene-3β,5α-diol-6β-N-[N,N′-bis(3-aminopropyl)butane-1,4-diamine]]	same observations
CC(C)[C@H](C)CC[C@@H](C)[C@H]1CC[C@H]2[C@@H]3C[C@@H](NCCCCNCCCN)[C@@]4(O)C[C@@H](O)CC[C@]4(C)[C@H]3CC[C@]12C [Example 45, campestane-3β,5α-diol-6β-N-[1-N-1-(3-aminopropyl)butane-1,4-diamine]]	same observations
CC(C)CCC[C@@H](C)[C@H]1CC[C@H]2[C@@H]3C[C@@H](NCCCNCCCCNCCCN)[C@@]4(O)C[C@@H](O)CC[C@]4(C)[C@H]3CC[C@]12C [Example 5, cholestane-3β,5α-diol-6β-N-[N,N′-bis(3-aminopropyl)butane-1,4-diamine]]	same observations
CC(C)CCC[C@@H](C)[C@H]1CC[C@H]2C3=C[C@@H](NCCCCNCCCN)[C@@]4(O)C[C@@H](O)CC[C@]4(C)[C@H]3CC[C@]12C [Example 6, cholest-7-ene-3β,5α-diol-6β-N-[1-N-1-(3-aminopropyl)butane-1,4-diamine]]	formation of dendrites
CC(C)[C@H](C)CC[C@@H](C)[C@H]1CC[C@H]2[C@@H]3C[C@@H](NCCCNCCCCNCCCN)[C@@]4(O)C[C@@H](O)CC[C@]4(C)[C@H]3CC[C@]12C [Example 43, campestane-3β,5α-diol-6β-N-[N,N′-bis(aminopropyl)butane-1,4-diamine]]	same observations
CC[C@H](CC[C@@H](C)[C@H]1CC[C@H]2[C@@H]3C[C@@H](NCCCCNCCCN)[C@@]4(O)C[C@@H](O)CC[C@]4(C)[C@H]3CC[C@]12C)C(C)C [Example 44, sitostane-3β,5α-diol-6β-N-[1-N1-(3-aminopropyl)butane-1,4-diamine]]	same observations
CC[C@H](CC[C@@H](C)[C@H]1CC[C@H]2[C@@H]3C[C@@H](NCCCNCCCCNCCCN)[C@@]4(O)C[C@@H](O)CC[C@]4(C)[C@H]3CC[C@]12C)C(C)C [Example 42, sitostane-3β,5α-diol-6β-N-[N,N′-bis(aminopropyl)butane-1,4-diamine]]	same observations

Test system: U-937 cells
Test: Production of IL-12p70 and IL-10 by the dendritic cells (ELISA)
Format: cell-based, human
Settings: treatments extending over a period of two weeks
Experimental: The culture supernatants are frozen at a temperature of −80° C. until the time of testing for the presence of cytokines. The presence of IL-12p70 and IL-10 is measured using ELISA kits obtained from “Endogen” (Woburn, Mass., USA).
This phenomenon continues for the two weeks of treatment.

Molecule	transcription/production of IL-10
sitostane-3β,5α-diol-6β-N-{[2-(1H-imidazol-4-yl)ethyl]ethylamine} [Example 46]	same observations
campestane-3β,5α-diol-6β-N-{[2-(1H-imidazol-4-yl)ethyl]ethylamine} [Example 47]	same observations
